This note sets out measurements from US20260199484A1, “PROTAC DEGRADERS OF MLLT1 AND/OR MLLT3” (DARK BLUE THERAPEUTICS LTD, priority 2024, published 2026).

The target in this assay is T1, MLLT1 (Mus musculus, UniProt F6UGX7).
T1 construct: endogenous in cells; host or cells: NIH/3T3 (ATCC CRL-1658)
T1 sequence (F6UGX7 1-547): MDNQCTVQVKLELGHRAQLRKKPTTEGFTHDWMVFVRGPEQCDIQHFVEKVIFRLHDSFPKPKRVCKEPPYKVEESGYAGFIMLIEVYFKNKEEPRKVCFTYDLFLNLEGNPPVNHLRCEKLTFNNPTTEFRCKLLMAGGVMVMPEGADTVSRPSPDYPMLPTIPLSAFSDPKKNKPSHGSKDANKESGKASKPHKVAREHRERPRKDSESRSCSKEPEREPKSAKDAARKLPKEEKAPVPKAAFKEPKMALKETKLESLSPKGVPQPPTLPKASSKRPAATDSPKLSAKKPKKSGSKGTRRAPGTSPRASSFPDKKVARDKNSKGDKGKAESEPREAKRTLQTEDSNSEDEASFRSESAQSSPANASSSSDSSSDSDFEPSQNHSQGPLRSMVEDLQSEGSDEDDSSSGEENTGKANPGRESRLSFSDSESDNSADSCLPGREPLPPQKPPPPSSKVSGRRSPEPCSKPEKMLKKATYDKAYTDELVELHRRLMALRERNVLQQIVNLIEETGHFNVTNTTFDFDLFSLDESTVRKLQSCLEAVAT
The assay can be described thus: MLLT1 degradation assay in NIH/3T3 cells (JESS, 5 h). In kind it is cell-based. As to the method: MLLT1 degradation efficacy of compounds was tested in an automated chemiluminescent detection system (JESS, Cat #004-650). NIH/3T3 (#CRL-1658, ATCC) were seeded at a density of 0.5 million cells/well in a cell culture treated 6-well cell culture plate in 2 mL of complete medium (DMEM+10% FBS+1× Penicillin-Streptomycin) and incubated at 37° C., 5% CO2. The next day, 10 mM DMSO stocks were prepared, and cells were treated with eight concentrations of test compound, starting from 100 nM, 5-fold dilution, at a final DMSO concentration of 0.1% and incubated for 5 h at 37° C., 5% CO2. Post incubation, cells were washed with HBSS and lysed in 70 μL of RIPA buffer supplemented with Protease inhibitors (sc-24948; Santa Cruz). Protein estimation was done using BCA protein assay kit (23228; Pierce). […] Post run, data was analysed using “Compass for SW” software for chemiluminescent detection. […]
MLLT3 degradation efficacy of compounds was tested in an automated chemiluminescent detection system (JESS, Cat #004-650). […] Post run, data was analysed using “Compass for SW” software for chemiluminescent detection. […]

By DC50 is commonly meant the concentration at which degradation of the target reaches its halfway point. Regarding `Cc1nn(CCCCCCCC#Cc2cccc3c2CN(C2CCC(=O)NC2=O)C3=O)c2cc(C(=O)Nc3cc4[nH]c([C@H]5CCCN5C)cc4cn3)ccc12` (mixture of isomers) [Example 1, 1-(9-(2-(2,6-dioxopiperidin-3-yl)-1-oxoisoindolin-4-yl)non-8-yn-1-yl)-3-methyl-N-(2-((R)-1-methylpyrrolidin-2-yl)-1H-pyrrolo[3,2-c]pyridin-6-yl)-1H-indazole-6-carboxamide], the Dmax (NIH3T3, read-out: MLLT1 Dmax in NIH/3T3 cells) turned out to be 90%. For the same molecule, where the note is “NIH/3T3 cells, 5 h”, it took 1.4 nM to reach half-maximal degradation (DC50).
